# Read-outs that look alike come from different tables or passages of the source.
# How the values were obtained:
# [1] = system: human lung cancer strain NCI-H441; assay: NCI-H441 cell proliferation inhibitory activity (CellTiter-Glo, 4 days); type: cell-based; conditions: read-out: NCl-H441 IC50
# Outline: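 Step one: dispense the test compound in serial DMSO dilutions. Step three: add the reagent and measure […].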
# [2] = target: GDP-bound KRAS wild-type protein (Homo sapiens, UniProt P01116); assay: Binding to KRAS by surface plasmon resonance (SPR), dissociation constant KD
# Outline: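 GDP-loaded biotinylated Avi-tag RAS proteins (E. coli-expressed) captured on a Biotin CAPture chip at ~100–300 RU; single-cycle kinetics at 30°C, 100 µL/min, 75 s injections of rising compound concentrations. HBS pH 7.4 running buffer with 1 mM DTT, 10 mM MgCl2, 10 µM GDP, 4% DMSO. KD from 1:1 binding fit.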
# [3] = target: HRAS wild-type protein (Homo sapiens, UniProt P01112); assay: Binding to HRAS by surface plasmon resonance (SPR), KD and KD ratio to KRAS
# Outline: (§1)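 Running buffer contained 10 µM GDP and 10 mM MgCl2 to keep RAS in the GDP state, with 4% DMSO at pH 7.4. Compounds were flowed at 100 µL/min in 75 s steps of rising concentration over captured biotin-Avi RAS at 30°C. Sensorgrams were fitted 1:1 for KD.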
# [4] = target: GDP-bound NRAS wild-type protein (Homo sapiens, UniProt P01111); assay: Binding to NRAS by surface plasmon resonance (SPR), KD and KD ratio to KRAS
# Outline: as §1
# [5] = ratio of KD for HRAS wild-type protein to KD for KRAS
# [6] = ratio of KD for GDP-bound NRAS wild-type protein to KD for KRAS
# [7] = 50% proliferation inhibitory concentration, four days
# [8] = Single Cycle Kinetics, 1:1 binding model
# [9] = ratio of KD with respect to HRAS wild-type protein to KD with respect to KRAS
# [10] = ratio of KD with respect to GDP-bound NRAS wild-type protein to KD with respect to KRAS
# GDP-bound NRAS wild-type protein, sequence (P01111 whole entry): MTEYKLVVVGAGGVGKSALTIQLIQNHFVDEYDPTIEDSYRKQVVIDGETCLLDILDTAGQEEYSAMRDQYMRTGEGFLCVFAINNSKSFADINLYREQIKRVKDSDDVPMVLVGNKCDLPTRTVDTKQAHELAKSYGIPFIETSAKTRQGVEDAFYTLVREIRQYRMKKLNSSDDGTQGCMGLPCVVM
# GDP-bound KRAS wild-type protein, sequence (P01116 1-188 isoform P01116-2): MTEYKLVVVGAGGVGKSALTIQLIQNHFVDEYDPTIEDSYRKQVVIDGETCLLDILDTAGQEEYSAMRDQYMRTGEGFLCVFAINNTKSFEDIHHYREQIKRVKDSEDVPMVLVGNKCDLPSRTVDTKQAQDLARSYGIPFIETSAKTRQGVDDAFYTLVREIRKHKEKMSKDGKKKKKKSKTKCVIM
# HRAS wild-type protein, sequence (P01112 whole entry): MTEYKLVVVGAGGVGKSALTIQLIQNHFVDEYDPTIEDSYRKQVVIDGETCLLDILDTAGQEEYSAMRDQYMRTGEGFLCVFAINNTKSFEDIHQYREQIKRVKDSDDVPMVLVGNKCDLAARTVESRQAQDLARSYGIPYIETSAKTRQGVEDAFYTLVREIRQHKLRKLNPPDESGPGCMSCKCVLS
SMILES,"IC50 ([1]; NCI-H441 cells, 4 days) [nM]",Kd ([2]; Single Cycle Kinetics) [nM],"HRAS /KRAS [3, 5]","NRAS /KRAS [4, 6]","IC50 [1, 7] [nM]","Kd [2, 8] [nM]","HRAS /KRAS [3, 9]","NRAS /KRAS [4, 10]",Kd ([2]; 1:1 binding model) [nM]
CCCO[C@@H]1C[C@H]2C(=O)NC3(CC(C)(C)C3)C(=O)N(C)[C@@H](C3CCCC3)C(=O)N(C)[C@H](C(=O)N(C)CC)CC(=O)N(C)[C@@H](COCC)C(=O)N[C@@H]([C@@H](C)CC)C(=O)N3CCC[C@H]3C(=O)N(C)[C@H]3C/C=C\CCN(C3=O)[C@@H](Cc3ccc(C(F)(F)F)cc3)C(=O)N(C)CC(=O)N[C@@H](CCc3ccc(C(F)(F)F)c(OC)c3)C(=O)N2C1 [PP3413],23.8,0.73,A (a compound having 10 or more and less than 20 is denoted as A),AA (a compound having 20 or more is denoted as AA),–,–,–,–,–
CCO[C@@H]1C[C@H]2C(=O)NC3(CCCC3)C(=O)N(C)[C@@H](C3CCCC3)C(=O)N(C)[C@H](C(=O)N3CCOCC3)CC(=O)N(C)[C@@H](CC)C(=O)N[C@@H]([C@@H](C)CC)C(=O)N(C)CC(=O)N(C)[C@H]3C[C@H](C)C(C)CN(C3=O)[C@@H](Cc3ccc(C(F)(F)F)cc3)C(=O)N(C)CC(=O)N[C@@H](CCc3cc(F)c(C(F)(F)F)c(F)c3)C(=O)N2C1 (some centres unmarked) [PP1348],–,–,–,–,8.7,0.076,B (a compound having 3 or more and less than 10 is denoted as B),B (a compound having 3 or more and less than 10 is denoted as B),–
CCC[C@H]1C(=O)N[C@@H]([C@@H](C)CC)C(=O)N(C)CC(=O)N(C)[C@H]2C/C=C\CCN(C2=O)[C@@H](Cc2ccc(C)cc2)C(=O)N(C)CC(=O)N[C@@H](CCc2ccc(C(F)(F)F)c(Cl)c2)C(=O)N2CC3(CC3)C[C@H]2C(=O)NC2(CCC2)C(=O)N(C)[C@@H]([C@@H](C)CC)C(=O)N(C)[C@H](C(=O)N(C)C)CC(=O)N1C [PP3426],17.2,0.36,A (a compound having 10 or more and less than 20 is denoted as A),A (a compound having 10 or more and less than 20 is denoted as A),–,–,–,–,–
CCO[C@@H]1C[C@H]2C(=O)NC3(CC(C)(C)C3)C(=O)N(C)[C@@H](C3CCCC3)C(=O)N(C)[C@H](C(=O)N3CCCCC3)CC(=O)N(C)[C@@H](COC)C(=O)N[C@@H]([C@@H](C)CC)C(=O)N(C)CC(=O)N(C)[C@H]3C/C=C\CCN(C3=O)[C@@H](Cc3ccc(C(F)(F)F)cc3)C(=O)N(C)CC(=O)N[C@@H](CCc3ccc(Cl)c(Cl)c3)C(=O)N2C1 [PP2670],25.2,–,A (a compound having 10 or more and less than 20 is denoted as A),AA (a compound having 20 or more is denoted as AA),–,–,–,–,0.48
CCC[C@H]1C(=O)N[C@@H]([C@@H](C)CC)C(=O)N(C)CC(=O)N(C)[C@H]2C/C=C\CCN(C2=O)[C@@H](Cc2ccc(C(F)(F)F)cc2)C(=O)N(C)CC(=O)N[C@@H](CCc2ccc(C(F)(F)F)c(OC)c2)C(=O)N2CC3(CC3)C[C@H]2C(=O)NC2(CCC2)C(=O)N(C)[C@@H](CC(C)(C)C)C(=O)N(C)[C@H](C(=O)N(C)C)CC(=O)N1C [PP3412],4.3,0.037,B (a compound having 3 or more and less than 10 is denoted as B),A (a compound having 10 or more and less than 20 is denoted as A),–,–,–,–,–
CCC(CC)[C@H]1C(=O)N(C)[C@H](C(=O)N(C)C)CC(=O)N(C)[C@@H](COC)C(=O)N[C@@H]([C@@H](C)CC)C(=O)N2CCC[C@H]2C(=O)N(C)[C@H]2C/C=C\CCN(C2=O)[C@@H](Cc2ccc(C(F)(F)F)cc2)C(=O)N(C)CC(=O)N[C@@H](CCc2ccc(Cl)c(Cl)c2)C(=O)N2C[C@H](OC3CCC3)C[C@H]2C(=O)NC2(CC(C)(C)C2)C(=O)N1C [PP2645],86.7,–,A (a compound having 10 or more and less than 20 is denoted as A),AA (a compound having 20 or more is denoted as AA),–,–,–,–,1.1
CCO[C@@H]1C[C@H]2C(=O)NC3(CCC3)C(=O)N(C)[C@@H](C3CCCC3)C(=O)N(C)[C@H](C(=O)N3CCOCC3)CC(=O)N(C)[C@@H](CC3CC3)C(=O)N[C@@H]([C@@H](C)CC)C(=O)N(C)CC(=O)N(C)[C@H]3C/C=C\CCN(C3=O)[C@@H](Cc3ccc(C)cc3)C(=O)N(C)CC(=O)N[C@@H](CCc3cc(F)c(C(F)(F)F)c(F)c3)C(=O)N2C1 [PP1408],–,–,–,–,37.6,0.22,A (a compound having 10 or more and less than 20 is denoted as A),A (a compound having 10 or more and less than 20 is denoted as A),–
CCC[C@H]1C(=O)N[C@@H](C2CCCC2)C(=O)N(C)CC(=O)N(C)[C@H]2C/C=C\CCN(C2=O)[C@@H](Cc2ccc(C(F)(F)F)cc2)C(=O)N(C)CC(=O)N[C@@H](CCc2cc(F)c(C(F)(F)F)c(F)c2)C(=O)N2CC3(CC3)C[C@H]2C(=O)N(C)C2(CCC2)C(=O)N(C)[C@@H]([C@@H](C)CC)C(=O)N(C)[C@H](C(=O)N(C)C)CC(=O)N1C [PP3307],25.4,2.4,A (a compound having 10 or more and less than 20 is denoted as A),AA (a compound having 20 or more is denoted as AA),–,–,–,–,–
CCC[C@H]1C(=O)N[C@@H]([C@@H](C)CC)C(=O)N(C2CC2)CC(=O)N(C)[C@H]2C/C=C\CCN(C2=O)[C@@H](Cc2ccc(C(F)F)cc2)C(=O)N(C)CC(=O)N[C@@H](CCc2cc(F)c(C(F)(F)F)c(F)c2)C(=O)N2C[C@H](OC(C)C)C[C@H]2C(=O)NC2(CC(C)(C)C2)C(=O)N(C)[C@@H](C(CC)CC)C(=O)N(C)[C@H](C(=O)N(C)C)CC(=O)N1C [PP2529],64,–,A (a compound having 10 or more and less than 20 is denoted as A),AA (a compound having 20 or more is denoted as AA),–,–,–,–,0.77
CCC[C@H]1C(=O)N[C@@H](C2CCCC2)C(=O)N(C)CC(=O)N(C)[C@H]2C/C=C\CCN(C2=O)[C@@H](Cc2ccc(C)cc2)C(=O)N(C)CC(=O)N[C@@H](CCc2cc(F)c(C(F)(F)F)c(F)c2)C(=O)N2CC3(CC3)C[C@H]2C(=O)N(C)C2(CCC2)C(=O)N(C)[C@@H](C2CCCC2)C(=O)N(C)[C@H](C(=O)N(C)C)CC(=O)N1C [PP3306],9.3,0.052,B (a compound having 3 or more and less than 10 is denoted as B),A (a compound having 10 or more and less than 20 is denoted as A),–,–,–,–,–
CCCO[C@@H]1C[C@H]2C(=O)NC3(CC(C)(C)C3)C(=O)N(C)[C@@H](C3CCCC3)C(=O)N(C)[C@H](C(=O)N(C)CC)CC(=O)N[C@@H](COCC)C(=O)N[C@@H]([C@@H](C)CC)C(=O)N3CCC[C@H]3C(=O)N(C)[C@H]3C/C=C\CCN(C3=O)[C@@H](Cc3ccc(C)cc3)C(=O)N(C)CC(=O)N[C@@H](CCc3cc(F)c(C(F)(F)F)c(F)c3)C(=O)N2C1 [PP3423],81.2,1.8,A (a compound having 10 or more and less than 20 is denoted as A),A (a compound having 10 or more and less than 20 is denoted as A),–,–,–,–,–
CCC(CC)[C@H]1C(=O)N(C)[C@H](C(=O)N(C)C)CC(=O)N(C)[C@@H](COC)C(=O)N[C@@H]([C@@H](C)CC)C(=O)N(C)CC(=O)N(C)[C@H]2C/C=C\CCN(C2=O)[C@@H](Cc2ccc(C(F)(F)F)cc2)C(=O)N(C)CC(=O)N[C@@H](CCc2ccc(Cl)c(Cl)c2)C(=O)N2C[C@H](OC(C)C)C[C@H]2C(=O)NC2(CC(C)(C)C2)C(=O)N1C [PP2533],20,–,A (a compound having 10 or more and less than 20 is denoted as A),AA (a compound having 20 or more is denoted as AA),–,–,–,–,0.49
CCC[C@H]1C(=O)N[C@@H](C2CCCC2)C(=O)N(C)CC(=O)N(C)[C@H]2C/C=C\CCN(C2=O)[C@@H](Cc2ccc(C)cc2)C(=O)N(C)CC(=O)N[C@@H](CCc2ccc(C(F)(F)F)c(Cl)c2)C(=O)N2CC3(CC3)C[C@H]2C(=O)NC2(CCC2)C(=O)N(C)[C@@H](C(CC)CC)C(=O)N(C)[C@H](C(=O)N(C)C)CC(=O)N1C [PP3432],57.7,0.71,A (a compound having 10 or more and less than 20 is denoted as A),AA (a compound having 20 or more is denoted as AA),–,–,–,–,–
CCC[C@H]1C(=O)N[C@@H]([C@@H](C)CC)C(=O)N(C)CC(=O)N(C)[C@H]2C/C=C\CCN(C2=O)[C@@H](Cc2ccc(C)cc2)C(=O)N(C)CC(=O)N[C@@H](CCc2ccc(C(F)(F)F)c(OC)c2)C(=O)N2C[C@H](OCC)C[C@H]2C(=O)NC2(CC(C)(C)C2)C(=O)N(C)[C@@H](CC2CCC2)C(=O)N(C)[C@H](C(=O)N(C)C)CC(=O)N1C [PP2753],52,–,B (a compound having 3 or more and less than 10 is denoted as B),A (a compound having 10 or more and less than 20 is denoted as A),–,–,–,–,0.97

# — EP4603105A1, “PHARMACEUTICAL COMPOSITION CONTAINING CYCLIC COMPOUND HAVING SELECTIVE KRAS INHIBITORY EFFECT AGAINST HRAS AND NRAS” (CHUGAI SEIYAKU KABUSHIKI KAISHA, priority 2022, dated 2024)
